Here are results for six molecules from patent publication US20040106802A1, “Novel compounds and therapeutic uses thereof” (TORRENT PHARMACEUTICALS LTD., priority 2002, published 2004).

The target in one series is T1, Porcine DPP-IV (Sus scrofa, UniProt P22411).
T1 construct: purchased Sigma-Aldrich Germany
Put plainly: Assay of DPP-IV enzyme inhibitory activity (spectrophotometric, Gly-Pro-pNA cleavage). It is filed as biochemical. The conditions noted are these: Porcine DPP-IV, Gly-Pro-pNA substrate, 30° C.; mean ± SD of three experiments except compound Nos. 133 & 139; read-out: IC50 (μM) Mean ± SD, inhibitory activity on DPP-IV enzyme activity.

The test system of the next series is DPP-IV. Conditions: in vivo; cited from earlier work.
For series [1] the following is noted: in vivo; cited from earlier work.
The subject of a further series is zucker fatty rats. Conditions: cited from earlier work.

T1 sequence (P22411 whole entry): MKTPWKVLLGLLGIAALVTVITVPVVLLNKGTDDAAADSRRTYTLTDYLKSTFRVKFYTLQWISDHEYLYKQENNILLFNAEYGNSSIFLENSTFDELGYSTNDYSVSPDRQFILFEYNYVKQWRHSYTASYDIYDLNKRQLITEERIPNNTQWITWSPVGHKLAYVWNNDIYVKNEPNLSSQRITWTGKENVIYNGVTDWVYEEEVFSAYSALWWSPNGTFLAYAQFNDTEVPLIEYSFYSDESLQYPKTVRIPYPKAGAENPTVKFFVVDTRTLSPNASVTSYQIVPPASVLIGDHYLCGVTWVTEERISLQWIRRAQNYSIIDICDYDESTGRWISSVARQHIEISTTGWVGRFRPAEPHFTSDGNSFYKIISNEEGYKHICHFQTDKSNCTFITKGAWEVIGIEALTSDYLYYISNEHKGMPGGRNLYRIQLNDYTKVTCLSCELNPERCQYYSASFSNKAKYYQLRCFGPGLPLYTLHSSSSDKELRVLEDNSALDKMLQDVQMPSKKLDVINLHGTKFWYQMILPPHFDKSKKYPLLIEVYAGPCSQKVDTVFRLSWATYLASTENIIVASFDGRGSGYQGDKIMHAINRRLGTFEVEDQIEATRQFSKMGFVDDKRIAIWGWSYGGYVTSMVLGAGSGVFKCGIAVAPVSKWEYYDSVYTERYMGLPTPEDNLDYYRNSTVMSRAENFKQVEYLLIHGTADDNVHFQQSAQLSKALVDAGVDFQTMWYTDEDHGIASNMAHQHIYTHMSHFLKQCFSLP

`Cl.N#CC1CCCN1C(=O)N(N)C1CCCCC1` (stereo not shown): the melting point – broadly, the temperature of the solid-liquid transition – is 160 to 162 °C (dec.).

As to `Cl.N#CC1CSCN1C(=O)N(N)C1CCCCC1` (stereo not shown), the melting point is 166 to 168 °C (dec.).

On to `N#CC1CCCN1C(=O)C1CNCCN1.O=C(O)C(F)(F)F.O=C(O)C(F)(F)F` (stereo not shown) [Compound No. 1, 2-Cyano-1-(piperazine-2-yl)-carbonyl pyrrolidine bis-trifluoroacetate], for which the melting point fell in the range of 126 to 128 °C. Also, at Porcine DPP-IV, the IC50 (as a rule, the point on the concentration scale where inhibition reaches its midpoint) came out at 47.6 ± 2.72 µM.

For the molecule `N#Cc1ccc(NCCNCC(=O)N2CCC[C@H]2C#N)nc1` [NVP-DPP-728, 1-[-2-{(5-cyanopyridin-2-yl)amino}ethylamino]acetyl-2-cyano-(S)-pyrrolidine], the “insulin secretion and glucose tolerance (in words)” value in the series with DPP-IV is “improves insulin secretion and glucose tolerance”.

In the case of GLP-19-36, the “apparent half-life in the circulation” value in series [1] was 4 to 5 min.

Consider `CC[C@H](C)[C@H](N)C(=O)N1CCSC1` [Isoleucine thiazolidide], for which, in the series on zucker fatty rats, the “glucose tolerance (in words)” value is given as “improved glucose tolerance”.
